Measurements: patent publication US20240350441A1, “PHARMACEUTICAL FORMULATION AND A PROCESS FOR ITS PREPARATION” (SAVA HEALTHCARE LTD, priority 2021, published 2024)
Counter-ions that a name gives are not always drawn.

Assays:
[1] = Solubility/stability of injectable cinnamic acid 6 mg/mL in diluents (HPLC, ICH); assay type: physicochemical; conditions: zero day
Protocol: 6 mg of cinnamic acid was dissolved in 300 μl of 100% ethanol, sonicated for 5 min and then diluted to 1 ml with 5% PEG 400/5% DMSO/5% ethyl lactate to obtain a clear solution of cinnamic acid in the injectable form (injectable formulation). The formulation was evaluated for stability as per ICH guidelines.

[2] = system: Cyclophosphamide induced neutropenia; experiment: Cyclophosphamide induced neutropenia, hematological parameters (Example 10); assay type: in vivo, Female Swiss Albino mice; conditions: for Anti-neutropenic activity (words): inference from table 8A
Protocol: (§1) • 1. To induce neutropenia by administration of cyclophosphamide. • 2.
(§2) Materials: Female Swiss Albino mice weighing between 25-27 g was procured from Global Bioresearch Solutions Pvt Ltd., Pune.
(§3) On day 0, blood was withdrawn from all animals for basal hematological parameters. All the groups of animals except placebo group were injected with 150 mg/kg of cyclophosphamide through intraperitoneal route (i.p.), while group 1 was injected with water for injection, i.p. On Day 3, blood was withdrawn from all animals for Total and differential count (neutrophils, lymphocytes, and monocytes). The animals of group 2 to 7 were dosed with one additional dose of 100 mg/kg cyclophosphamide on Day 4. […] The cyclophosphamide control group was injected with water for injection from day 5 to day 9. On day 10, blood was withdrawn from all animals for total and differential count (neutrophils, lymphocytes, and monocytes), platelets, liver parameters AST (aspartate aminotransferase), ALT (alanine aminotransferase), and renal parameters—serum creatinine, blood urea nitrogen and uric acid.
(§4) • Pure Picroside 1—1 tablet was dissolved in 0.1 ml of sterile water for injection and 0.1 ml was injected as subcutaneous injection. • The degraded Picroside 1 without salt (cinnamic acid of the present disclosure)—1 tablet was dissolved in 0.1 ml of sterile water for injection and 0.1 ml was injected as subcutaneous injection. • The Cinnamic acid low dose (0.6 mg/tablet) treated tablet was dissolved in 0.1 ml of sterile water for injection and 0.1 ml was injected as subcutaneous injection. • The Cinnamic acid high dose treated (6 mg/tablet) tablet was dissolved in 0.1 ml of sterile water for injection and 0.1 ml was injected as subcutaneous injection.

[3] = system: Cyclophosphamide induced hepatotoxicity and renal changes; experiment: Hepatic and renal parameters in cyclophosphamide induced neutropenia (Example 10); assay type: in vivo, Female Swiss Albino mice; conditions: for BUN (blood urea nitrogen) / SGOT Serum glutamic oxaloacetic transaminase / SGPT (Serum glutamic pyruvic transaminase) / Serum Creatinine / Uric acid: day 10
Protocol: as §1, §2, §3, §4

[4] = system: neutropenia; experiment: Efficacy dose for anti-neutropenic activity and human equivalent dose; assay type: in vivo, mice
Protocol: The animal efficacy dose of the cinnamic acid prepared in accordance with the present disclosure was 0.6 mg/mice or 0.6 mg/25 g or 6 mg/250 g or 24 mg/kg mice.
The human dose of the cinnamic acid prepared in accordance with the present disclosure, AED (animal equivalent dose) was divided by 12.3=24/12.3=1.95 mg/kg HED (human equivalent dose).
The animal efficacy dose of the cinnamic acid prepared in accordance with the present disclosure was 6 mg/25 g or 60 mg/250 g mice or 240 mg cinnamic acid/kg.
The human dose of the cinnamic acid prepared in accordance with the present disclosure, AED (animal equivalent dose) was divided by 12.3=240/12.3=19.51 mg/kg HED (human equivalent dose).

[5] = Day 0, basal, 0.6 mg/tablet low dose
[6] = Day 0, basal, 6 mg/tablet high dose
[7] = Day 3, after cyclophosphamide, before treatment, 0.6 mg/tablet low dose
[8] = Day 3, after cyclophosphamide, before treatment, 6 mg/tablet high dose
[9] = Day 10, treated day 5 for 5 days, 0.6 mg/tablet low dose, 1 tablet per animal per day
[10] = Day 10, treated day 5 for 5 days, 6 mg/tablet high dose, 1 tablet per animal per day
[11] = vs CP control, day 10, cinnamic acid at both 0.6 mg/tablet low dose and 6 mg/tablet high dose
[12] = 0.6 mg/tablet low dose, 1 tablet per animal per day for 5 days
[13] = 6 mg/tablet high dose, 1 tablet per animal per day for 5 days
[14] = vs CP control, cinnamic acid at both 0.6 mg/tablet low dose and 6 mg/tablet high dose
[15] = Day 0, basal, G-CSF 2 μg, Picroside tablets groups
[16] = Day 3, after cyclophosphamide, before treatment, G-CSF 2 μg, Picroside tablets groups
[17] = Day 10, treated day 5 for 5 days, G-CSF 2 μg s.c., others 1 tablet per animal per day
[18] = G-CSF 2 μg s.c., others 1 tablet per animal per day for 5 days

O=C(O)C=Cc1ccccc1 [The commercial synthetic Cinnamic acid, 3-Phenyl-2-propenoic acid]
HPLC area ([1]; 30% Ethanol with 3.5% PEG400): 3128043
HPLC area ([1]; 30% Ethanol with 5% DMSO): 3276296
HPLC area ([1]; 30% Ethanol with 5% Ethyl lactate): 3175284
HPLC area ([1]; 100% Methanol): 3379040
% Lymphocytes [2, 5]: 45.17%
% Monocytes [2, 5]: 6.66%
% Neutrophils [2, 5]: 40.33%
No of Platelets [2, 5]: 736600 per cu · mm of blood
Total WBC Count [2, 5]: 7465 per cu · mm of blood
% Lymphocytes [2, 6]: 46.83%
% Monocytes [2, 6]: 6.82%
% Neutrophils [2, 6]: 40.17%
No of Platelets [2, 6]: 772500 per cu · mm of blood
Total WBC Count [2, 6]: 7237 per cu · mm of blood
% Lymphocytes [2, 7]: 83.67%
% Monocytes [2, 7]: 1.82%
% Neutrophils [2, 7]: 6.50%
No of Platelets [2, 7]: 630500 per cu · mm of blood
Total WBC Count [2, 7]: 2289 per cu · mm of blood
% Lymphocytes [2, 8]: 84%
% Monocytes [2, 8]: 1.66%
% Neutrophils [2, 8]: 6.333%
No of Platelets [2, 8]: 637000 per cu · mm of blood
Total WBC Count [2, 8]: 2306 per cu · mm of blood
% Lymphocytes [2, 9]: 61%
% Monocytes [2, 9]: 5.82%
% Neutrophils [2, 9]: 27.67%
No of Platelets [2, 9]: 641400 per cu · mm of blood
Total WBC Count [2, 9]: 4460 per cu · mm of blood
% Lymphocytes [2, 10]: 53%
% Monocytes [2, 10]: 5.82%
% Neutrophils [2, 10]: 33.17%
No of Platelets [2, 10]: 660300 per cu · mm of blood
Total WBC Count [2, 10]: 5389 per cu · mm of blood
Anti-neutropenic activity (words) ([2]; listed as The commercial synthetic cinnamic acid): active to address neutropenia
Effect on % lymphocytes [2, 11]: significant (p<0.001) decrease in % lymphocytes
Effect on % monocytes [2, 11]: significantly (p<0.001) reversed
Effect on % neutrophil [2, 11]: significantly (p<0.001) alleviated the cyclophosphamide-induced neutropenia
Effect on platelet count [2, 11]: did not cause significant change in the platelet count
Effect on total WBC count [2, 11]: significantly (p<0.001) reversed the cyclophosphamide induced decrease in WBC count
BUN (blood urea nitrogen) [3, 12]: 9.533 mmol/L
SGOT Serum glutamic oxaloacetic transaminase [3, 12]: 33.67 IU/L
SGPT (Serum glutamic pyruvic transaminase) [3, 12]: 36.5 IU/L
Serum Creatinine [3, 12]: 38.5 µM
Uric acid [3, 12]: 16.82 mg/L
BUN (blood urea nitrogen) [3, 13]: 9.383 mmol/L
SGOT Serum glutamic oxaloacetic transaminase [3, 13]: 29.33 IU/L
SGPT (Serum glutamic pyruvic transaminase) [3, 13]: 32.17 IU/L
Serum Creatinine [3, 13]: 37.5 µM
Uric acid [3, 13]: 16.66 mg/L
Effect on BUN level [3, 14]: significant (p<0.001) decrease in BUN level
Effect on SGOT level [3, 14]: significant (p<0.001) decrease in SGOT
Effect on SGPT level [3, 14]: significant reversal (p<0.001)
Effect on serum creatinine level [3, 14]: significant (p<0.001) decrease in creatinine level
Effect on uric acid level [3, 14]: significant reversal (p<0.001) of uric acid level

O=C(O)C=Cc1ccccc1 [The degraded Picroside 1 without salt, cinnamic acid]
% Lymphocytes [2, 15]: 46.5%
% Monocytes [2, 15]: 6.50%
% Neutrophils [2, 15]: 38.83%
No of Platelets [2, 15]: 759400 per cu · mm of blood
Total WBC Count [2, 15]: 7644 per cu · mm of blood
% Lymphocytes [2, 16]: 83.5%
% Monocytes [2, 16]: 1.82%
% Neutrophils [2, 16]: 6.667%
No of Platelets [2, 16]: 624000 per cu · mm of blood
Total WBC Count [2, 16]: 2253 per cu · mm of blood
% Lymphocytes [2, 17]: 58.83%
% Monocytes [2, 17]: 5.50%
% Neutrophils [2, 17]: 25.17%
No of Platelets [2, 17]: 631900 per cu · mm of blood
Total WBC Count [2, 17]: 3705 per cu · mm of blood
Anti-neutropenic activity (words) ([2]; listed as the degraded Picroside 1 without salt): shows better anti-neutropenic activity
BUN (blood urea nitrogen) [3, 18]: 9.467 mmol/L
SGOT Serum glutamic oxaloacetic transaminase [3, 18]: 27.5 IU/L
SGPT (Serum glutamic pyruvic transaminase) [3, 18]: 30.33 IU/L
Serum Creatinine [3, 18]: 41 µM
Uric acid [3, 18]: 21.50 mg/L
Hepatic and renal parameters in neutropenic animal model ([3]; inference from table 8B, as compared to GCSF): improved hepatic and renal parameters
animal efficacy dose for anti-neutropenic activity ([4]; from 0.6 mg/mice (0.6 mg/25 g)): 24 mg/kg
animal efficacy dose ([4]; from 6 mg/25 g mice): 240 mg cinnamic acid/kg
